For assay [1], the system named is T1, General amino-acid permease GAP1 (Saccharomyces cerevisiae), P19145 [V381C].
T1 sequence (whole entry): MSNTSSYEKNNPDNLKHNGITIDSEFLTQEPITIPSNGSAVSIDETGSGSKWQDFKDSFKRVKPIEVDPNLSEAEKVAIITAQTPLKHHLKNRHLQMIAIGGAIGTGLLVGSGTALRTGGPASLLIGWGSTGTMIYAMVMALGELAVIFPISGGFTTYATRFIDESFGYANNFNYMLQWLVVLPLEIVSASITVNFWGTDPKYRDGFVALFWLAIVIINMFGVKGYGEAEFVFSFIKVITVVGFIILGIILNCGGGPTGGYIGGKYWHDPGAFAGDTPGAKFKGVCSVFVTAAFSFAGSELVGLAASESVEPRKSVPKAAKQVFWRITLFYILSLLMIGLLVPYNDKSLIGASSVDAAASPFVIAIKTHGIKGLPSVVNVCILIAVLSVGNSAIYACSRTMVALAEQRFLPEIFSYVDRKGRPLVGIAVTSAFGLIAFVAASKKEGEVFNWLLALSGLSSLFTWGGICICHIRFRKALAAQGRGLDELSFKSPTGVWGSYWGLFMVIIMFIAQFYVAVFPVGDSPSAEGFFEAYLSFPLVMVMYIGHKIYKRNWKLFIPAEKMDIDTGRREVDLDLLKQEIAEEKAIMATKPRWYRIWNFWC
Briefly: Induction of yeast Gap1 V381C mutant-mediated amino acid uptake at 2 mM in presence of 10 mM MTSEA treated before compound addition.

The subject of assay [2] is T2, General amino-acid permease GAP1 (Saccharomyces cerevisiae), P19145 [A405C].
T2 sequence (whole entry): T1 sequence (whole entry) with C381V, A405C
Briefly: Induction of yeast GAP1 A405C mutant-mediated amino acid uptake at 2 mM in presence of 10 mM MTSEA treated before compound addition.

For assay [3], the system named is T3, General amino-acid permease GAP1 (Saccharomyces cerevisiae), P19145 [A385C].
T3 sequence (whole entry): T1 sequence (whole entry) with C381V, A385C
Put plainly: Induction of yeast Gap1 A385C mutant-mediated amino acid uptake at 2 mM in presence of 10 mM MTSEA treated before compound addition.

The test system of assay [4] is T1, General amino-acid permease GAP1 (Saccharomyces cerevisiae), P19145 [V381C]. Put plainly: Activation of yeast Gap1 V381C mutant-mediated amino acid uptake at 10 mM.
Assay [5] deals with T4, General amino-acid permease GAP1 (Saccharomyces cerevisiae), P19145 [I384C].
T4 sequence (whole entry): T1 sequence (whole entry) with C381V, I384C
Put plainly: Induction of yeast Gap1 I384C mutant-mediated trehalose activation at 10 mM.

The test system is the same in assay [6]. Put plainly: Induction of yeast Gap1 I384C mutant-mediated amino acid uptake at 2 mM in presence of 10 mM MTSEA treated before compound addition.

Data on 1 compound can be found in ChEMBL document CHEMBL1221220, “Transport and signaling via the amino acid binding site of the yeast Gap1 amino acid transceptor” (Nat Chem Biol, 2009).

Changes are numbered by the printed parent chain. Calls of active or inactive are those of the source. No cut-off for these calls is given here.

For `NC(=O)NCCC[C@H](N)C(=O)O`, the outcome in assay [1], in assay [2], in assay [3] and in assay [6] was Active. Moreover, the result in assay [4] and in assay [5] was inactive.
